In US10973861B2, “Compositions and methods” (priority 2013, dated 2021):

System: C. difficile
Assay: Mouse model of C. difficile infection, bacterial compositions given by oral gavage on day −1 (Example 1)
Assay type: in vivo, mice
Conditions: positive control, oral gavage on days −1 to 4

## CN[C@H](CC(C)C)C(=O)N[C@H]1C(=O)N[C@@H](CC(N)=O)C(=O)N[C@H]2C(=O)N[C@H]3C(=O)N[C@H](C(=O)N[C@H](C(=O)O)c4cc(O)cc(O)c4-c4cc3ccc4O)[C@H](O)c3ccc(c(Cl)c3)Oc3cc2cc(c3O[C@@H]2O[C@H](CO)[C@@H](O)[C@H](O)[C@H]2O[C@H]2C[C@](C)(N)[C@H](O)[C@H](C)O2)Oc2ccc(cc2Cl)[C@H]1O [Vancomycin]
  weight loss, clinical signs of disease, and C. difficile shedding (in words): protects against these outcomes
